Reference: US20230278972A1, “SUBSTITUTED HALOALKYL SULFONANILIDE HERBICIDES” (FMC Corporation, priority 2020, published 2023)
Read-outs that look alike come from different tables or passages of the source.

Key:
[1] = test system: ragweed (common ragweed, Ambrosia artemisiifolia); experiment: Test A preemergence, ragweed; assay type: in vivo; conditions: Ambrosia artemisiifolia, pre-emergence, 240 h, Preemergence; for pest or weed control at 125 g/ha: 125 g ai/ha; for pest or weed control at 500 g/ha: 500 g ai/ha
Outline: (§1)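 Postemergence ratings come from foliar sprays onto one- to two-leaf plants of 2 to 10 cm grown in loam/sand; preemergence ratings come from a directed spray onto the soil of newly seeded pots. Formulation was a surfactant-containing non-phytotoxic solvent blend.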

[2] = test system: Ryegrass, Italian (Italian ryegrass, Lolium multiflorum); experiment: Test A preemergence, Ryegrass, Italian; assay type: in vivo; conditions: Lolium multiflorum, pre-emergence, 240 h, Preemergence; for pest or weed control at 125 g/ha: 125 g ai/ha; for pest or weed control at 500 g/ha: 500 g ai/ha
Outline: as §1

[3] = test system: barnyardgrass (Echinochloa crus-galli); experiment: Test A postemergence, barnyardgrass; assay type: in vivo; conditions: Echinochloa crus-galli, post-emergence, 240 h, Postemergence, 0 to 100 scale (0 no effect, 100 complete control); for pest or weed control at 125 g/ha: 125 g ai/ha; for pest or weed control at 500 g/ha: 500 g ai/ha
Outline: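 Whole-plant herbicidal screen in pots of loam blended with sand. Sprays used a surfactant-containing, non-phytotoxic solvent vehicle. Timing was preemergence soil-directed at planting or postemergence at the one- to two-leaf stage (2–10 cm).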

[4] = test system: Ryegrass, Italian (Italian ryegrass, Lolium multiflorum); experiment: Test A postemergence, Ryegrass, Italian; assay type: in vivo; conditions: Lolium multiflorum, post-emergence, 240 h, Postemergence, 0 to 100 scale (0 no effect, 100 complete control); for pest or weed control at 125 g/ha: 125 g ai/ha; for pest or weed control at 500 g/ha: 500 g ai/ha
Outline: as §1

[5] = test system: ducksalad (Heteranthera limosa); experiment: Test B flooded paddy test, ducksalad; conditions: 336 h, read-out: Plant response rating, Ducksalad
[6] = visual injury, 0 to 100 scale (0 no effect, 100 complete control), approx. 10 days, read-out: Plant response rating, Ragweed
[7] = visual injury on 0 to 100 scale (0 no effect, 100 complete control), approximately 10 days, read-out: Ragweed plant response rating
[8] = visual injury, 0 to 100 scale (0 no effect, 100 complete control), approx. 10 days, read-out: Plant response rating, Ryegrass, Italian
[9] = visual injury on 0 to 100 scale (0 no effect, 100 complete control), approximately 10 days, read-out: Ryegrass, Italian plant response rating
[10] = read-out: Plant response rating, Barnyardgrass
[11] = visual injury approx. 10 days, read-out: Plant response rating, Barnyardgrass
[12] = read-out: Plant response rating, Ryegrass, Italian
[13] = visual injury approx. 10 days, read-out: Plant response rating, Ryegrass, Italian
[14] = 0 to 100 scale (0 no effect, 100 complete control), read-out: Plant response rating, Ragweed
[15] = 0 to 100 scale (0 no effect, 100 complete control), read-out: Plant response rating, Ryegrass, Italian
[16] = visual injury vs untreated controls after approx. 10 days, read-out: Barnyardgrass plant response rating
[17] = visual injury vs untreated controls after approx. 10 days, read-out: Ryegrass, Italian plant response rating
[18] = visual injury, approx. 10 days, read-out: Plant response rating, Barnyardgrass
[19] = visual injury, approx. 10 days, read-out: Plant response rating, Ryegrass, Italian

SMILES	pest or weed control at 125 g/ha [1, 6] [%]	pest or weed control at 500 g/ha [1, 7] [%]	pest or weed control at 125 g/ha [2, 8] [%]	pest or weed control at 500 g/ha [2, 9] [%]	pest or weed control at 125 g/ha [3, 10] [%]	pest or weed control at 500 g/ha [3, 11] [%]	pest or weed control at 125 g/ha [4, 12] [%]	pest or weed control at 500 g/ha [4, 13] [%]	pest or weed control at 250 g/ha [5] [%]	pest or weed control at 125 g/ha [1, 7] [%]	pest or weed control at 500 g/ha [1, 14] [%]	pest or weed control at 125 g/ha [2, 9] [%]	pest or weed control at 500 g/ha [2, 15] [%]	pest or weed control at 125 g/ha [3, 11] [%]	pest or weed control at 500 g/ha [3, 16] [%]	pest or weed control at 500 g/ha [4, 17] [%]	pest or weed control at 125 g/ha [4, 13] [%]	pest or weed control at 500 g/ha [3, 18] [%]	pest or weed control at 500 g/ha [4, 19] [%]
Cc1cc(C)c(C(=O)N2CCC(F)(F)CC2)cc1NS(=O)(=O)C(F)(F)F [Compound 241, N-[5-[(4,4-Difluoro-1-piperidinyl)carbonyl]-2,4-dimethylphenyl]-1,1,1-trifluoromethanesulfonamide]	70	90	70	100	60	90	0	70	85	–	–	–	–	–	–	–	–	–	–
Cc1cc(C)c(N(COC(=O)C(C)(C)C)S(=O)(=O)C(F)(F)F)cc1C1=NOC2(CCCC2)C1 [Compound 140, [[2,4-Dimethyl-5-(1-oxa-2-azaspiro[4.4]non-2-en-3-yl)phenyl][(trifluoromethyl)sulfonyl]amino]methyl 2,2-dimethylpropanoate]	–	–	–	–	–	–	0	–	85	30	60	0	100	70	90	20	–	–	–
Cc1cc(Cl)c(NS(=O)(=O)C(F)(F)F)cc1C(=O)N1CCC(F)(F)CC1 [Compound 229, N-[2-Chloro-5-[(4,4-difluoro-1-piperidinyl)carbonyl]-4-methylphenyl]-1,1,1-trifluoromethanesulfonamide]	90	100	60	90	–	–	30	–	75	–	–	–	–	–	–	70	–	–	–
Cc1cc(C)c(C2=NOC3(CCCC3)C2)cc1NS(=O)(=O)C(F)(F)F [Compound 207, N-[2,4-Dimethyl-5-(1-oxa-2-azaspiro[4.4]non-2-en-3-yl)phenyl]-1,1,1-trifluoromethanesulfonamide]	20	–	90	–	60	–	40	–	95	–	70	–	100	–	80	90	–	–	–
Cc1c(NS(=O)(=O)C(F)(F)F)cc(C(=O)N2CCOCC2)c(C)c1F [Compound 190, 1,1,1-Trifluoro-N-[3-fluoro-2,4-dimethyl-5-(4-morpholinylcarbonyl)phenyl]methanesulfonamide]	70	–	70	–	80	–	80	–	75	–	90	–	100	–	90	90	–	–	–
Cc1cc(C)c(C2=NO[C@@H]3CCC[C@H]23)cc1NS(=O)(=O)C(F)(F)F [Compound 103, N-[2,4-Dimethyl-5-[(3aR,6aR)-3a,5,6,6a-tetrahydro-4H-cyclopent[d]isoxazol-3-yl]phenyl]-1,1,1-trifluoromethanesulfonamide]	–	–	–	–	–	–	–	–	80	70	90	90	90	90	90	90	90	–	–
Cc1cc(C)c(N(COC(=O)C(C)(C)C)S(=O)(=O)C(F)(F)F)cc1C1=NOC2(CCCCC2)C1 [Compound 159, [[2,4-Dimethyl-5-(1-oxa-2-azaspiro[4.5]dec-2-en-3-yl)phenyl][(trifluoromethyl)sulfonyl]amino]methyl 2,2-dimethylpropanoate]	–	–	–	–	30	–	0	–	35	80	80	0	30	–	80	0	–	–	–
Cc1c(NS(=O)(=O)C(F)(F)F)cc(C(=O)N(C)C)c(C)c1F [Compound 128, 3-Fluoro-N,N,2,4-tetramethyl-5-[[(trifluoromethyl)sulfonyl]amino]benzamide]	–	–	–	–	–	–	–	–	50	90	90	100	100	50	90	100	80	–	–
CCc1cc(-c2cc(NS(=O)(=O)C(F)(F)F)c(C)cc2C)c(=O)n(C)n1 [Compound 34, N-[5-(6-Ethyl-2,3-dihydro-2-methyl-3-oxo-4-pyridazinyl)-2,4-dimethylphenyl]-1,1,1-trifluoromethanesulfonamide]	–	–	–	–	–	–	–	–	0	0	20	30	70	0	–	–	0	0	0
Cc1cc(Cl)c(NS(=O)(=O)C(F)(F)F)cc1C(=O)N1CCOCC1 [Compound 16, N-[2-Chloro-4-methyl-5-(4-morpholinylcarbonyl)phenyl]-1,1,1-trifluoromethanesulfonamide]	–	–	–	–	–	–	–	–	40	80	100	90	100	60	–	–	50	90	70
Cc1cc(C)c(C2=NOC3CCOCC23)cc1NS(=O)(=O)C(F)(F)F (centres unmarked) [Compound 120, N-[2,4-Dimethyl-5-(3a,6,7,7a-tetrahydro-4H-pyrano[3,4-d]isoxazol-3-yl)phenyl]-1,1,1-trifluoromethanesulfonamide]	–	–	–	–	–	–	–	–	55	90	100	100	100	90	90	80	90	–	–
Cc1cc(Cl)c(NS(=O)(=O)C(F)(F)F)cc1C(=O)N1CCCCC1 [Compound 18, N-[2-Chloro-4-methyl-5-(1-piperidinylcarbonyl)phenyl]-1,1,1-trifluoromethanesulfonamide]	–	–	–	–	–	–	–	–	0	0	30	90	90	0	–	–	10	70	40
Cc1cc(C)c(C2=NOC3(CCCCC3)C2)cc1NS(=O)(=O)C(F)(F)F [Compound 197, N-[2,4-Dimethyl-5-(1-oxa-2-azaspiro[4.5]dec-2-en-3-yl)phenyl]-1,1,1-trifluoromethanesulfonamide]	80	–	100	–	–	–	50	–	95	–	90	–	100	–	–	60	–	–	–
